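Cells were grown in 96-well plates and exposed to each compound for 48 hours at five concentrations; endpoints were interpolated linearly between bracketing concentrations, or set to the highest concentration if not reached. At the GI50, growth is halved.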 Active and inactive are the calls of the source. Rule as the data show it: active = GI50 up to about 1.1 µM and inactive = higher.
Tests used:
Test in all cases: NCI-60 cell line screen, 48 h
MOLT-4 = tested on: MOLT-4
DU-145 = tested on: DU-145
HOP-62 = tested on: HOP-62
KM12 = tested on: KM12
SW-620 = tested on: SW-620
SNB-75 = tested on: SNB-75
NCI/ADR-RES = tested on: NCI/ADR-RES
MDA-N = tested on: MDA-N
U-251 = tested on: U-251
SF-268 = tested on: SF-268
NCI-H460 = tested on: NCI-H460
MDA-MB-231 = tested on: MDA-MB-231
OVCAR-8 = tested on: OVCAR-8
SF-539 = tested on: SF-539
NCI-H226 = tested on: NCI-H226
T47D = tested on: T47D
UACC-62 = tested on: UACC-62

Structure (SMILES)	GI50 (MOLT-4)	GI50 (DU-145)	GI50 (HOP-62)	GI50 (KM12)	GI50 (SW-620)	GI50 (SNB-75)	GI50 (NCI/ADR-RES)	GI50 (MDA-N)	GI50 (U-251)	GI50 (SF-268)	GI50 (NCI-H460)	GI50 (MDA-MB-231)	GI50 (OVCAR-8)	GI50 (SF-539)	GI50 (NCI-H226)	GI50 (T47D)	GI50 (UACC-62)
COc1cc(OC2OC(COC(=O)c3cc(O)c(O)c(O)c3)C(O)C(O)C2O)ccc1O (centres undefined)	53.1 µM (inactive)	> 100 µM (inactive)	> 100 µM (inactive)	88.1 µM (inactive)	40.3 µM (inactive)	> 100 µM (inactive)	> 100 µM (inactive)	30.5 µM (inactive)	> 100 µM (inactive)	82 µM (inactive)	> 100 µM (inactive)	34.5 µM (inactive)	89.9 µM (inactive)	> 100 µM (inactive)	> 100 µM (inactive)		
CC1=NN(c2nc(N)nc(CN3CCOCC3)n2)C(C)(C)C1	> 100 µM (inactive)	> 100 µM (inactive)	46.2 µM (inactive)	> 100 µM (inactive)	> 100 µM (inactive)	> 100 µM (inactive)	> 100 µM (inactive)		> 100 µM (inactive)	> 100 µM (inactive)	> 100 µM (inactive)	> 100 µM (inactive)	> 100 µM (inactive)	> 100 µM (inactive)	> 100 µM (inactive)	> 100 µM (inactive)	26.5 µM (inactive)
CNC(=S)NN=C1NCCCCN1	> 100 µM (inactive)		> 100 µM (inactive)	> 100 µM (inactive)	> 100 µM (inactive)	> 100 µM (inactive)	> 100 µM (inactive)	> 100 µM (inactive)	> 100 µM (inactive)	> 100 µM (inactive)	> 100 µM (inactive)	> 100 µM (inactive)	> 100 µM (inactive)	> 100 µM (inactive)	> 100 µM (inactive)	> 100 µM (inactive)	> 100 µM (inactive)
Cc1cc(C)c2c(c1)C1=NCCN1C2(O)c1ccc(Cl)cc1 (centres undefined)	37.6 µM (inactive)	19.5 µM (inactive)	15.2 µM (inactive)	15.3 µM (inactive)	15.6 µM (inactive)	12.3 µM (inactive)	14.4 µM (inactive)	15.1 µM (inactive)	17.7 µM (inactive)	15.8 µM (inactive)	14.9 µM (inactive)	14.6 µM (inactive)	15.8 µM (inactive)	15.3 µM (inactive)		16.4 µM (inactive)	15.9 µM (inactive)
CC/C(=C/OC)P1(=O)OC(C)(C)CN1C(C)(C)C (centres undefined)		> 100 µM (inactive)	> 100 µM (inactive)	> 100 µM (inactive)	> 100 µM (inactive)		> 100 µM (inactive)		> 100 µM (inactive)	> 100 µM (inactive)	> 100 µM (inactive)	> 100 µM (inactive)	> 100 µM (inactive)	> 100 µM (inactive)	> 100 µM (inactive)	> 100 µM (inactive)	> 100 µM (inactive)
Cc1ccc(Nc2nc(C)c(C(=O)CC(=O)C(=O)Nc3ccc(Cl)cc3)s2)cc1	> 100 µM (inactive)	> 100 µM (inactive)	> 100 µM (inactive)	> 100 µM (inactive)	> 100 µM (inactive)	30.9 µM (inactive)		> 100 µM (inactive)	> 100 µM (inactive)	49.5 µM (inactive)	> 100 µM (inactive)	56.5 µM (inactive)		> 100 µM (inactive)		> 100 µM (inactive)	> 100 µM (inactive)
O=C(C(Cl)=C(N1CCCCC1)N1CCCCC1)C(Cl)Cl	> 100 µM (inactive)	> 100 µM (inactive)	> 100 µM (inactive)	> 100 µM (inactive)	> 100 µM (inactive)		> 100 µM (inactive)	> 100 µM (inactive)		> 100 µM (inactive)	> 100 µM (inactive)	> 100 µM (inactive)	> 100 µM (inactive)	> 100 µM (inactive)	> 100 µM (inactive)	> 100 µM (inactive)	> 100 µM (inactive)
C[C@@]1(c2ccccc2)O[C@@H]2C[C@H]3[C@@H]4CCC5=CC(=O)C=C[C@]5(C)[C@@]4(F)[C@@H](O)C[C@]3(C)[C@]2(C(=O)CO)O1 [AMCINAFIDE]		20.1 µM (inactive)	15.6 µM (inactive)	16.4 µM (inactive)	21.9 µM (inactive)	26.9 µM (inactive)	15 µM (inactive)	17 µM (inactive)	17.7 µM (inactive)	15.1 µM (inactive)	14.6 µM (inactive)	11.1 µM (inactive)	17.5 µM (inactive)		15.8 µM (inactive)	20.2 µM (inactive)	16.7 µM (inactive)
Cc1cc(C)c(N[S+]([O-])c2cccc(Cl)c2)c(C)c1 (centres undefined)	> 100 µM (inactive)	> 100 µM (inactive)	> 100 µM (inactive)	> 100 µM (inactive)	> 100 µM (inactive)		> 100 µM (inactive)	> 100 µM (inactive)	> 100 µM (inactive)	> 100 µM (inactive)	> 100 µM (inactive)		> 100 µM (inactive)	> 100 µM (inactive)	> 100 µM (inactive)		
CC(=O)NC1(C)CCC(C(C)(C)NC(C)=O)CC1 (centres undefined)	> 100 µM (inactive)	> 100 µM (inactive)	> 100 µM (inactive)	> 100 µM (inactive)	> 100 µM (inactive)	> 100 µM (inactive)	> 100 µM (inactive)	> 100 µM (inactive)	> 100 µM (inactive)	> 100 µM (inactive)	> 100 µM (inactive)	> 100 µM (inactive)	> 100 µM (inactive)	> 100 µM (inactive)	> 100 µM (inactive)		> 100 µM (inactive)
NS(=O)(=O)c1cccc(NC(=S)NC(=O)Nc2ccc(Cl)c(Cl)c2)c1	12 µM (inactive)	30.1 µM (inactive)	15.5 µM (inactive)	15.8 µM (inactive)	19 µM (inactive)	18.3 µM (inactive)	15.9 µM (inactive)	18.6 µM (inactive)	22.3 µM (inactive)	22.5 µM (inactive)	16.7 µM (inactive)	17.7 µM (inactive)	17.3 µM (inactive)	20 µM (inactive)		18.1 µM (inactive)	13.3 µM (inactive)
CC1(O)Oc2ccc3ccccc3c2C=C1C(N)=O (centres undefined)	18.6 µM (inactive)	> 100 µM (inactive)	36.7 µM (inactive)	> 100 µM (inactive)	> 100 µM (inactive)	52 µM (inactive)			> 100 µM (inactive)	71.9 µM (inactive)	61.1 µM (inactive)	38.9 µM (inactive)		42.1 µM (inactive)		36.6 µM (inactive)	> 100 µM (inactive)
Brc1cccc[n+]1-c1ccc2cc(-[n+]3ccccc3Br)ccc2c1		14.8 µM (inactive)	27.6 µM (inactive)	20.8 µM (inactive)	44.5 µM (inactive)		53.3 µM (inactive)		15.6 µM (inactive)	31.8 µM (inactive)	30.2 µM (inactive)	24.2 µM (inactive)	43 µM (inactive)	19.3 µM (inactive)	> 100 µM (inactive)	22.3 µM (inactive)	45.1 µM (inactive)
COc1ccc(C2=C3SC=c4ccccc4=C3ON=C2c2ccccc2)cc1	37.2 µM (inactive)	> 100 µM (inactive)	> 100 µM (inactive)	> 100 µM (inactive)	> 100 µM (inactive)		> 100 µM (inactive)		> 100 µM (inactive)	> 100 µM (inactive)	> 100 µM (inactive)	> 100 µM (inactive)	> 100 µM (inactive)	> 100 µM (inactive)	> 100 µM (inactive)	25.4 µM (inactive)	> 100 µM (inactive)
S=C(S)NCCN1CCNCC1		36.1 µM (inactive)	> 100 µM (inactive)	> 100 µM (inactive)	20.7 µM (inactive)	> 100 µM (inactive)	> 100 µM (inactive)	37.2 µM (inactive)	> 100 µM (inactive)	99.3 µM (inactive)	34.6 µM (inactive)	> 100 µM (inactive)	28.9 µM (inactive)		> 100 µM (inactive)	10.7 µM (inactive)	84.9 µM (inactive)
C[N+](C)(C)CC(=O)N/N=C(\Cc1nc2ccc([N+](=O)[O-])cc2nc1O)C(=O)Nc1nc2ccc([N+](=O)[O-])cc2s1	49.2 µM (inactive)	39.4 µM (inactive)	57.9 µM (inactive)	45.2 µM (inactive)	78 µM (inactive)	21.5 µM (inactive)	63.4 µM (inactive)		56.6 µM (inactive)	34 µM (inactive)	23.4 µM (inactive)	> 100 µM (inactive)	74.3 µM (inactive)	31.8 µM (inactive)	25.4 µM (inactive)	21.9 µM (inactive)	62.2 µM (inactive)
CC1=C2O[C@]3(O)C=C2C(=C(O)C1=O)[C@@H]1O[C@H](CC[C@H](C)/C=C(\C)C[C@@H](C)C[C@@H]3C)[C@H](C)[C@H](O)[C@H]1C [KENDOMYCIN]	0.097 µM (active)	0.265 µM (active)	0.356 µM (active)	0.661 µM (active)	0.582 µM (active)	0.394 µM (active)	0.311 µM (active)	0.166 µM (active)	0.326 µM (active)	0.354 µM (active)	0.728 µM (active)	0.151 µM (active)		0.173 µM (active)	1.12 µM (active)		0.233 µM (active)
O=C(/C=C/c1c(O)nc2ccccc2c1O)CC(=O)C(=O)Nc1cccc(O)c1	> 100 µM (inactive)	> 100 µM (inactive)		> 100 µM (inactive)	> 100 µM (inactive)	> 100 µM (inactive)	> 100 µM (inactive)		> 100 µM (inactive)	> 100 µM (inactive)	> 100 µM (inactive)	> 100 µM (inactive)	> 100 µM (inactive)	> 100 µM (inactive)	> 100 µM (inactive)	> 100 µM (inactive)	> 100 µM (inactive)
